Assay results from article PMC7180572, “5-Alkylamino-N-phenylpyrazine-2-carboxamides: Design, Preparation, and Antimycobacterial Evaluation” (Molecules, 2020).
Converted amounts (≈) assume the structure as drawn. “And” between values parts separate entries of the source, which are not always exact repeats. Equal values may be shown once. Read-outs that look alike come from different tables or passages of the source.

Assays:
[1] = test system: Mycobacterium tuberculosis H37Ra ITM-M006710 (ATCC 9431); assay: Microdilution broth, modified Microplate Alamar Blue Assay, whole cell growth inhibition; type: cell-based; details: for MIC: Mycobacterium tuberculosis, read-out: MIC Mtb H37Ra
[2] = test system: Mycobacterium aurum DSM 43999 (ATCC 23366); assay: as above; type: cell-based; details: for MIC: Mycolicibacterium aurum, read-out: MIC Mycobacterium aurum
[3] = test system: Mycobacterium smegmatis DSM 43465 (ATCC 607); assay: as above; type: cell-based; details: for MIC: Mycolicibacterium smegmatis, read-out: MIC Mycobacterium smegmatis
HepG2 cells = assay: HepG2 cytotoxicity, CellTiter 96 (MTS) assay; type: cell-based, human; details: for IC50: read-out: HepG2 IC50; for SI, selectivity index: IC50 (HepG2)/MIC against Mtb H37Ra (in µM)
[4] = test system: Candida albicans ATCC 24433, CCM 8320; assay: Antifungal microdilution broth method (EUCAST); type: cell-based
[5] = test system: Candida krusei ATCC 6258, CCM 8271; assay: Antifungal microdilution broth method (EUCAST); type: cell-based; details: Pichia kudriavzevii
[6] = test system: Candida parapsilosis ATCC 22019, CCM 8260; assay: Antifungal microdilution broth method (EUCAST); type: cell-based; details: Lodderomyces parapsilosis
[7] = test system: Candida tropicalis ATCC 750, CCM 8264; assay: Antifungal microdilution broth method (EUCAST); type: cell-based
[8] = test system: Aspergillus fumigatus ATCC 204305; assay: Antifungal microdilution broth method (EUCAST); type: cell-based
[9] = test system: Aspergillus flavus CCM 8363; assay: Antifungal microdilution broth method (EUCAST); type: cell-based
[10] = test system: Absidia corymbifera CCM 8077 (Lichtheimia corymbifera); assay: Antifungal microdilution broth method (EUCAST); type: cell-based
[11] = test system: Trichophyton interdigitale ATCC 9533, CCM 8377; assay: Antifungal microdilution broth method (EUCAST); type: cell-based
[12] = test system: Staphylococcus aureus spp.aureus ATCC 29213, CCM 4223; assay: Antibacterial microdilution broth method (EUCAST); type: cell-based; details: read-out: MIC SA
[13] = test system: Staphylococcus aureus methicillin resistant ATCC 43300, CCM 4750; assay: microbe, parasite or virus in culture; type: cell-based; details: ATCC 43300 / CCM 4750 / MRSA, read-out: MIC MRSA
[14] = test system: Staphylococcus epidermidis ATCC 12228, CCM 4418; assay: Antibacterial microdilution broth method (EUCAST); type: cell-based; details: read-out: MIC SE
[15] = test system: Enterococcus faecalis ATCC 29212, CCM 4224; assay: Antibacterial microdilution broth method (EUCAST); type: cell-based; details: read-out: MIC EF
[16] = test system: Escherichia coli ATCC 25922, CCM 3954; assay: Antibacterial microdilution broth method (EUCAST); type: cell-based; details: read-out: MIC EC
[17] = test system: Acinetobacter baumanii ATCC 19606, DSM 30007; assay: Antibacterial microdilution broth method (EUCAST); type: cell-based; details: Acinetobacter baumannii
[18] = test system: Pseudomonas aeruginosa ATCC 27853, CCM 3955; assay: Antibacterial microdilution broth method (EUCAST); type: cell-based; details: read-out: MIC PA
[19] = test system: Klebsiella pneumoniae ATCC 10031, CCM 4415; assay: Antibacterial microdilution broth method (EUCAST)
[20] = in vitro, Middlebrook 7H9 broth, resazurin
[21] = Homo sapiens, HepG2, 24 h incubation, > means higher concentration not reproducible due to precipitation
[22] = ATCC204305, 24 h, read-out: MIC AF
[23] = ATCC204305, 48 h, read-out: MIC AF
[24] = CCM8363, 24 h, read-out: MIC AFla
[25] = CCM8363, 48 h, read-out: MIC AFla
[26] = CCM8077, 24 h, read-out: MIC AC
[27] = CCM8077, 48 h, read-out: MIC AC

Molecule: 5-Chloro-N-(5-chloro-2-hydroxyphenyl)pyrazine-2-carboxamide [Compound 6]
- MIC Mtb H37Ra [1, 20]: ≥500 mg/L
- MIC Mycobacterium aurum [2, 20]: ≥500 mg/L
- MIC Mycobacterium smegmatis [3, 20]: ≥500 mg/L
- IC50 (HepG2 cells; 24 h incubation, > means higher concentration not reproducible due to precipitation): > 250 µM

Molecule: C[C@@H]1[C@H](O)[C@@H](C)/C=C/C=C/C=C/C=C/C=C/C=C/C=C/[C@H](O[C@@H]2O[C@H](C)[C@@H](O)[C@H](N)[C@@H]2O)C[C@@H]2O[C@](O)(C[C@@H](O)C[C@@H](O)[C@H](O)CC[C@@H](O)C[C@@H](O)CC(=O)O[C@H]1C)C[C@H](O)[C@H]2C(=O)O [Amphotericin B, amphotericin B, reference compound]
- MIC ([4]; 48 h, standards, read-out: MIC against Candida albicans): 0.5 mg/L
- MIC ([4]; Table 3, read-out: MIC CA (Candida albicans)): 0.54 µM
- MIC ([4]; Table 3, standard, read-out: MIC CA (Candida albicans)): 0.5 mg/L
- MIC ([5]; 48 h, standards, read-out: MIC against C. krusei): 1 mg/L
- MIC ([5]; Table 3, standard, read-out: MIC CK (Candida krusei)): 1 mg/L
- MIC ([5]; Table 3, read-out: MIC CK (Candida krusei)): 1.08 µM
- MIC ([6]; 48 h, standards, read-out: MIC against C. parapsilosis): 0.5 mg/L
- MIC ([6]; Table 3, standard, read-out: MIC CP (Candida parapsilosis)): 0.5 mg/L
- MIC ([6]; Table 3, read-out: MIC CP (Candida parapsilosis)): 0.54 µM
- MIC ([7]; 48 h, standards, read-out: MIC against C. tropicalis): 1 mg/L
- MIC ([8]; ATCC204305, 48 h, standards, read-out: MIC against Aspergillus fumigatus): 1 mg/L
- MIC ([9]; CCM8363, 48 h, standards, read-out: MIC against Aspergillus flavus): 8 mg/L
- MIC ([10]; CCM8077, 48 h, standards, read-out: MIC against Lichtheimia corymbifera): 0.5 mg/L
- MIC ([11]; 72 h, standards, read-out: MIC against Trichophyton interdigitale): 2 mg/L

Molecule: O=C(Nc1cccc(C(F)(F)F)c1)c1cnc(Cl)cn1 [Compound 1, 5-Chloro-N-(3-(trifluoromethyl)phenyl)pyrazine-2-carboxamide]
- MIC [1, 20]: 7.81 mg/L
- MIC [2, 20]: ≥ 500 mg/L
- MIC [3, 20]: ≥ 500 mg/L
- IC50 (HepG2 cells; [21]): 124 µM
- SI, selectivity index (HepG2 cells): 4.78

Molecule: CCCNc1cnc(C(=O)Nc2cccc(C(F)(F)F)c2)cn1 [Compound 1a, 5-(Propylamino)-N-(3-(trifluoromethyl)phenyl)pyrazine-2-carboxamide]
- MIC [1, 20]: 6.25 mg/L
- MIC [2]: ≥ 500 mg/L
- MIC [3]: ≥ 500 mg/L
- IC50 (HepG2 cells; Homo sapiens, HepG2, 24 h): > 25 µM
- SI, selectivity index (HepG2 cells): >1.3
- MIC ([12]; 24 h): > 500 µM
- MIC ([12]; 48 h): > 500 µM
- MIC ([13]; 24 h): > 500 µM
- MIC ([13]; 48 h): > 500 µM
- MIC ([14]; 24 h): > 500 µM
- MIC ([14]; 48 h): > 500 µM
- MIC ([15]; 24 h): > 500 µM
- MIC ([15]; 48 h): > 500 µM
- MIC ([16]; 24 h): > 500 µM
- MIC ([16]; 48 h): > 500 µM
- MIC ([17]; 24h): > 500 µM
- MIC ([17]; 48h): > 500 µM
- MIC ([18]; 72 h): > 500 µM
- MIC ([18]; 120 h): > 500 µM
- MIC ([4]; 24 h, read-out: MIC CA): > 125 µM
- MIC ([4]; 48 h, read-out: MIC CA): > 125 µM
- MIC ([5]; 24 h, read-out: MIC CK): > 125 µM
- MIC ([5]; 48 h, read-out: MIC CK): > 125 µM
- MIC ([6]; 24 h, read-out: MIC CP): > 125 µM
- MIC ([6]; 48 h, read-out: MIC CP): > 125 µM
- MIC ([7]; 24 h, read-out: MIC CT): > 125 µM
- MIC ([7]; 48 h, read-out: MIC CT): > 125 µM
- MIC [8, 22]: > 125 µM
- MIC [8, 23]: > 125 µM
- MIC [9, 24]: > 125 µM
- MIC [9, 25]: > 125 µM
- MIC [10, 26]: > 125 µM
- MIC [10, 27]: > 125 µM
- MIC ([11]; 72 h, read-out: MIC TI): > 125 µM
- MIC ([11]; 120 h, read-out: MIC TI): > 125 µM
- melting point: 155 to 156 °C
- MIC KP ([19]; 24h): > 500 µM
- MIC KP ([19]; 48h): > 500 µM

Molecule: CCCCNc1cnc(C(=O)Nc2cccc(C(F)(F)F)c2)cn1 [Compound 1b, 5-(Butylamino)-N-(3-(trifluoromethyl)phenyl)pyrazine-2-carboxamide]
- MIC ([1]; MIC converted to µM): 9.24 µM
- MIC [1, 20]: 3.13 mg/L
- MIC [2]: 6.25 mg/L (≈ 18.5 µM)
- MIC [3]: 3.13 mg/L (≈ 9.25 µM)
- IC50 (HepG2 cells; Homo sapiens, HepG2, 24 h): 126 µM
- SI, selectivity index (HepG2 cells): 14 and 13.6
- MIC ([12]; 24 h): > 500 µM
- MIC ([12]; 48 h): > 500 µM
- MIC ([13]; 24 h): > 500 µM
- MIC ([13]; 48 h): > 500 µM
- MIC ([14]; 24 h): > 500 µM
- MIC ([14]; 48 h): > 500 µM
- MIC ([15]; 24 h): > 500 µM
- MIC ([15]; 48 h): > 500 µM
- MIC ([16]; 24 h): > 500 µM
- MIC ([16]; 48 h): > 500 µM
- MIC ([17]; 24h): > 500 µM
- MIC ([17]; 48h): > 500 µM
- MIC ([18]; 72 h): > 500 µM
- MIC ([18]; 120 h): > 500 µM
- MIC ([4]; 24 h, read-out: MIC CA): > 125 µM
- MIC ([4]; 48 h, read-out: MIC CA): > 125 µM
- MIC ([5]; 24 h, read-out: MIC CK): > 125 µM
- MIC ([5]; 48 h, read-out: MIC CK): > 125 µM
- MIC ([6]; 24 h, read-out: MIC CP): > 125 µM
- MIC ([6]; 48 h, read-out: MIC CP): > 125 µM
- MIC ([7]; 24 h, read-out: MIC CT): > 125 µM
- MIC ([7]; 48 h, read-out: MIC CT): > 125 µM
- MIC [8, 22]: > 125 µM
- MIC [8, 23]: > 125 µM
- MIC [9, 24]: > 125 µM
- MIC [9, 25]: > 125 µM
- MIC [10, 26]: > 125 µM
- MIC [10, 27]: > 125 µM
- MIC ([11]; 72 h, read-out: MIC TI): > 125 µM
- MIC ([11]; 120 h, read-out: MIC TI): > 125 µM
- melting point: 141 to 142 °C
- MIC KP ([19]; 24h): > 500 µM
- MIC KP ([19]; 48h): > 500 µM

Molecule: O=C(Nc1cccc(O)c1)c1cnc(Cl)cn1 [Compound 2, 5-Chloro-N-(3-hydroxyphenyl)pyrazine-2-carboxamide]
- MIC [1, 20]: 31.2 mg/L
- MIC [2, 20]: ≥ 500 mg/L
- MIC [3, 20]: ≥ 500 mg/L
- IC50 (HepG2 cells; [21]): > 500 µM
- SI, selectivity index (HepG2 cells): >3.99
